Reference: PubChem BioAssay AID248 (DTP/NCI, 2004)
“And” between values parts separate entries of the source, which are not always exact repeats. Equal entries are not always repeated. Toxic doses and inconclusive results are not listed. Cut-off read from the data, not from the text of the source: active = T/C of 150% or more; inactive = T/C below 125%.

System: L1210 leukemia ip in BDF1 mice, survival T/C
Assay: NCI In Vivo Anticancer Drug Screen. Data for tumor model L1210 Leukemia (intraperitoneal) in B6D2F1 (BDF1) mice
Settings: higher = longer survival
Method in brief: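 Tumor cells were implanted, animals were treated, and survival was followed. The result divides the treated measurement by the vehicle-control measurement.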

[1] = endpoint: mean survival time, dose: 100.0 mg/kg/injection, schedule: Q01DX001 (ip), vehicle: carboxymethylcellulose (CMC)
[2] = endpoint: mean survival time, dose: 100.0 mg/kg/injection, schedule: Q01DX009 (ip), vehicle: saline with Tween-80
[3] = endpoint: mean survival time, dose: 100.0 mg/kg/injection, schedule: Q04DX003 (ip), vehicle: saline with Tween-80
[4] = endpoint: mean survival time, dose: 200.0 mg/kg/injection, schedule: Q01DX001 (ip), vehicle: carboxymethylcellulose (CMC)
[5] = endpoint: mean survival time, dose: 200.0 mg/kg/injection, schedule: Q01DX009 (ip), vehicle: saline with Tween-80
[6] = endpoint: mean survival time, dose: 200.0 mg/kg/injection, schedule: Q04DX003 (ip), vehicle: saline with Tween-80
[7] = endpoint: mean survival time, dose: 400.0 mg/kg/injection, schedule: Q01DX001 (ip), vehicle: carboxymethylcellulose (CMC)
[8] = endpoint: mean survival time, dose: 400.0 mg/kg/injection, schedule: Q04DX003 (ip), vehicle: saline with Tween-80
[9] = endpoint: mean survival time, dose: 100.0 mg/kg/injection, schedule: Q01DX001 (ip), vehicle: saline
[10] = endpoint: mean survival time, dose: 200.0 mg/kg/injection, schedule: Q01DX001 (ip), vehicle: saline
[11] = endpoint: mean survival time, dose: 400.0 mg/kg/injection, schedule: Q01DX001 (ip), vehicle: saline
[12] = endpoint: mean survival time, dose: 50.0 mg/kg/injection, schedule: Q01DX009 (ip), vehicle: saline with Tween-80
[13] = endpoint: mean survival time, dose: 100.0 mg/kg/injection, schedule: Q04DX003 (ip), vehicle: Klucel (hydroxypropylcellulose) (HPC)
[14] = endpoint: mean survival time, dose: 200.0 mg/kg/injection, schedule: Q04DX003 (ip), vehicle: Klucel (hydroxypropylcellulose) (HPC)
[15] = endpoint: mean survival time, dose: 400.0 mg/kg/injection, schedule: Q04DX003 (ip), vehicle: Klucel (hydroxypropylcellulose) (HPC)

Measured: T/C

Nc1c(Cl)cc([N+](=O)[O-])cc1Cl
inactive: endpoint: mean survival time, dose: 50.0 mg/kg/injection, schedule: Q01DX001 (ip), vehicle: carboxymethylcellulose (CMC) 95 % of control | [1] 92 % of control | [2] 103 % of control | [3] 97 % of control | [4] 106 % of control | [5] 92 % of control | [6] 93 % of control | [7] 95 % of control | endpoint: mean survival time, dose: 400.0 mg/kg/injection, schedule: Q01DX009 (ip), vehicle: saline with Tween-80 95 % of control | [8] 93 % of control

CCOC(=O)C1CC(=O)C(C(=O)OCC)CC1=O (centres undefined)
inactive: [9] 101 % of control | [10] 95 % of control | [11] 95 % of control

O=C(CNC(=O)NCc1ccccc1)NNC(=O)Nc1cccc(C(F)(F)F)c1
inactive: [12] 102 % of control | [2] 87 % of control | [5] 91 % of control

C=CCNC(N)=S
inactive: endpoint: mean survival time, dose: 100.0 mg/kg/injection, schedule: Q04DX002 (ip), vehicle: saline 100 % of control | endpoint: mean survival time, dose: 200.0 mg/kg/injection, schedule: Q04DX002 (ip), vehicle: saline 107 % of control | endpoint: mean survival time, dose: 400.0 mg/kg/injection, schedule: Q04DX002 (ip), vehicle: saline 95 % of control

CCCCCCCCCCCCCCCCOc1ccc2ccccc2c1
inactive: [13] 97 % of control | [14] 102 % of control | [15] 91 % of control

Cc1ccc(S(=O)(=O)N(C)C)cc1N
inactive: [12] 105 % of control | [2] 98 % of control | [3] 107 % of control | [5] 96 % of control | [6] 97 % of control | [8] 102 % of control

CCCCCCCCCCCCCCCC[As](=O)(O)O
inactive: [13] 121 % of control | [14] 93 % of control | [15] 90 % of control

CC1(O)CCCCC1
inactive: [9] 102 % of control | [10] 104 % of control | [11] 96 % of control

O=S(=O)(C(Br)CBr)C(Br)CBr (centres undefined)
inactive: endpoint: mean survival time, dose: 25.0 mg/kg/injection, schedule: Q01DX009 (ip), vehicle: saline with Tween-80 94 % of control | [12] 107 % of control

Nc1ccc(S(=O)(=O)F)c(Cl)c1
inactive: [9] 102 % of control | [10] 98 % of control | [11] 98 % of control

CCCCCCCCCCCCCCCCCCNC(=S)N/N=C/c1ccc(Cl)cc1Cl
inactive: endpoint: mean survival time, dose: 50.0 mg/kg/injection, schedule: Q04DX003 (ip), vehicle: other 91 % of control | endpoint: mean survival time, dose: 100.0 mg/kg/injection, schedule: Q01DX001 (ip), vehicle: other 95 % of control | endpoint: mean survival time, dose: 100.0 mg/kg/injection, schedule: Q04DX003 (ip), vehicle: other 96 % of control | endpoint: mean survival time, dose: 200.0 mg/kg/injection, schedule: Q01DX001 (ip), vehicle: other 86 % of control and 92 % of control | endpoint: mean survival time, dose: 200.0 mg/kg/injection, schedule: Q04DX003 (ip), vehicle: other 93 % of control

O=C(COc1ccc(Cl)cc1)N(c1ccccc1)C1CCCCC1
inactive: endpoint: mean survival time, dose: 100.0 mg/kg/injection, schedule: Q01DX009 (ip), vehicle: Klucel (hydroxypropylcellulose) (HPC) 96 % of control | endpoint: mean survival time, dose: 200.0 mg/kg/injection, schedule: Q01DX009 (ip), vehicle: Klucel (hydroxypropylcellulose) (HPC) 96 % of control | endpoint: mean survival time, dose: 400.0 mg/kg/injection, schedule: Q01DX009 (ip), vehicle: Klucel (hydroxypropylcellulose) (HPC) 94 % of control

O=C1OCC/C1=C/OCCCCCCCCCCO/C=C1\CCOC1=O
inactive: endpoint: mean survival time, dose: 100.0 mg/kg/injection, schedule: Q04DX002 (ip), vehicle: Klucel (hydroxypropylcellulose) (HPC) 91 % of control | endpoint: mean survival time, dose: 200.0 mg/kg/injection, schedule: Q04DX002 (ip), vehicle: Klucel (hydroxypropylcellulose) (HPC) 91 % of control | endpoint: mean survival time, dose: 400.0 mg/kg/injection, schedule: Q04DX002 (ip), vehicle: Klucel (hydroxypropylcellulose) (HPC) 94 % of control

CN(C)C(=O)Sc1cc(Cl)c(Cl)cc1Cl
inactive: endpoint: mean survival time, dose: 87.0 mg/kg/injection, schedule: Q01DX001 (ip), vehicle: Klucel (hydroxypropylcellulose) (HPC) 92 % of control | endpoint: mean survival time, dose: 175.0 mg/kg/injection, schedule: Q01DX001 (ip), vehicle: Klucel (hydroxypropylcellulose) (HPC) 92 % of control | endpoint: mean survival time, dose: 350.0 mg/kg/injection, schedule: Q01DX001 (ip), vehicle: Klucel (hydroxypropylcellulose) (HPC) 94 % of control

S=c1ccnc[nH]1
inactive: endpoint: mean survival time, dose: 100.0 mg/kg/injection, schedule: Q01DX Z (ip), vehicle: methylcellulose (MC) 87 % of control | endpoint: mean survival time, dose: 200.0 mg/kg/injection, schedule: Q01DX Z (ip), vehicle: methylcellulose (MC) 88 % of control

N#C/C(N)=C(\C#N)N=CC=N/C(C#N)=C(/N)C#N
inactive: endpoint: mean survival time, dose: 12.5 mg/kg/injection, schedule: Q01DX009 (ip), vehicle: Klucel (hydroxypropylcellulose) (HPC) 103 % of control | endpoint: mean survival time, dose: 25.0 mg/kg/injection, schedule: Q01DX009 (ip), vehicle: Klucel (hydroxypropylcellulose) (HPC) 103 % of control | endpoint: mean survival time, dose: 50.0 mg/kg/injection, schedule: Q01DX009 (ip), vehicle: Klucel (hydroxypropylcellulose) (HPC) 103 % of control | endpoint: mean survival time, dose: 100.0 mg/kg/injection, schedule: Q01DX001 (ip), vehicle: Klucel (hydroxypropylcellulose) (HPC) 95 % of control

C=C1C(=O)O[C@@H]2C[C@@H](C)[C@@H]3[C@@H](OC4OC(COC(C)=O)C(O)C(O)C4O)CC(=O)[C@@]3(C)C[C@H]12 (some centres undefined)
inactive: endpoint: mean survival time, dose: 6.4 mg/kg/injection, schedule: Q01DX009 (ip), vehicle: saline 101 % of control | endpoint: mean survival time, dose: 9.6 mg/kg/injection, schedule: Q01DX009 (ip), vehicle: saline 97 % of control | endpoint: mean survival time, dose: 14.0 mg/kg/injection, schedule: Q01DX009 (ip), vehicle: saline 104 % of control | endpoint: mean survival time, dose: 22.0 mg/kg/injection, schedule: Q01DX009 (ip), vehicle: saline 98 % of control | [3] 100 % of control | [6] 89 % of control | [8] 94 % of control

F
inactive: endpoint: mean survival time, dose: 5.0 mg/kg/injection, schedule: Q01DX001 (ip), vehicle: saline 89 % of control | endpoint: mean survival time, dose: 10.0 mg/kg/injection, schedule: Q01DX001 (ip), vehicle: saline 97 % of control | endpoint: mean survival time, dose: 12.0 mg/kg/injection, schedule: Q01DX Z (ip), vehicle: saline 98 % of control | endpoint: mean survival time, dose: 20.0 mg/kg/injection, schedule: Q01DX001 (ip), vehicle: saline 103 % of control | endpoint: mean survival time, dose: 24.0 mg/kg/injection, schedule: Q01DX Z (ip), vehicle: saline 101 % of control | endpoint: mean survival time, dose: 40.0 mg/kg/injection, schedule: Q01DX001 (ip), vehicle: saline 97 % of control | endpoint: mean survival time, dose: 48.0 mg/kg/injection, schedule: Q01DX Z (ip), vehicle: saline 110 % of control | endpoint: mean survival time, dose: 62.0 mg/kg/injection, schedule: Q01DX Z (ip), vehicle: saline 92 % of control | endpoint: median survival time, dose: 5.0 mg/kg/injection, schedule: Q01DX009 (ip), vehicle: water 93 % of control | endpoint: median survival time, dose: 10.0 mg/kg/injection, schedule: Q01DX009 (ip), vehicle: water 100 % of control | endpoint: median survival time, dose: 20.0 mg/kg/injection, schedule: Q01DX009 (ip), vehicle: water 106 % of control | endpoint: median survival time, dose: 40.0 mg/kg/injection, schedule: Q01DX009 (ip), vehicle: water 106 % of control

O=C(O)CCSC(=S)Nc1ccccc1O
inactive: [1] 103 % of control | [4] 93 % of control | [7] 98 % of control

N#CC(C(=O)Nc1cccc(C(F)(F)F)c1)C(=S)Nc1ccccc1Cl (centres undefined)
inactive: endpoint: mean survival time, dose: 25.0 mg/kg/injection, schedule: Q04DX002 (ip), vehicle: saline with Tween-80 102 % of control | endpoint: mean survival time, dose: 50.0 mg/kg/injection, schedule: Q04DX002 (ip), vehicle: saline with Tween-80 105 % of control | endpoint: mean survival time, dose: 100.0 mg/kg/injection, schedule: Q04DX002 (ip), vehicle: saline with Tween-80 101 % of control and 105 % of control
